“And” between values parts separate entries of the source, which are not always exact repeats. Equal values may be shown once. Read-outs that look alike come from different tables or passages of the source. Where a SMILES comes first, the peptide text is derived from it. Bridges are numbered along the chain shown (N, C = ends). [ ]: non-standard residue; d: D form. The star is where a group is joined. X2 = CC[C@H](C)CCCCC(=O)*; Dab = NCC[C@H](N)C(=O)O
Key:
K. pneumoniae = type: cell-based, Klebsiella pneumoniae; settings: for Survival rate (log10): Klebsiella pneumoniae, survival at 10xMIC for 4 hours, single replicates, (fig 9a source data)
Experimental: (§1) We employed image analysis to quantify bacterial survival under fixed antibiotic concentrations (10xMIC for 4 hours) on E. coli, A. baumannii, K. pneumoniae, and P. aeruginosa. […] Survival rate was quantified by calculating the ratio of the viable cells after antibiotic treatment and the total initial viable cell count.
(§2) Fig. 9 Killing kinetics of the studied antibiotics. a Bacterial survival rate in response to toxic antibiotic exposure. […] The bars indicate the survival rate (log10) compared to the untreated initial viable cell count (see “Methods”). Data are presented as mean values of 5 biological replicates ± SEM. The antibiotic group differentiation is denoted by color. […] Survival was estimated by measuring cell viability (colony-forming units/ml) of 2 biologically independent strains following a 4-hour exposure to different concentrations of 16 antibiotics on E. coli ATCC25922 (for further details, see “Methods”). The antibiotic concentration that kills 99.9% of the E. coli population is indicated as a vertical dotted line (see Supplementary Data 5). Error bars represent standard error calculated from the colony counts by Poisson’s model. A Hill function was fitted to the dose-response data from two biological replicates, producing sigmoidal curves (Supplementary Data 5). The Hill coefficient reflects how steeply the survival rate decreases in response to increasing antibiotic concentration ([…]). […] X-axis label colors indicate mode of action groups. For detailed information on antibiotic and bacterial species, see Supplementary Data 1. Source data are provided as a Source Data file.
(§3) In this current study, the killing kinetics of each antibiotic was measured according to a previously established experimental protocol[62] with minor modifications. During this assay, the bacterial cultures were exposed to antibiotics in 96-well assay plates and their viability after 4 hours of exposure was quantified by two methods: i) microplating and colony counting or ii) fluorescent staining of cells and counting of the fluorescent units.
(§4) Specifically, these experiments were performed in the following steps: (1) Preparation of bacterial stocks. Single colonies from each strain were isolated and grown overnight in MHB medium at 37 °C, 160 rpm. In case of the fluorescently tagged E. coli strains, the medium was supplemented with 10 μg/mL chloramphenicol, to maintain the pZS2R plasmid. Overnight cultures were diluted 1:5000 and grown to an optical density at 600 nm (OD600) of 0.25. These cultures were concentrated by centrifugation and small aliquots of 50 μL containing ~2.2 × 10^9 cells were frozen in glycerol (stored at −80 °C). (2) Preparing assay plates with antibiotics. 96-well plates were filled with 235 μL MHB and supplemented with antibiotics using an automated digital dispenser (D300e, Tecan). In the case of SCH79797, we used minimal media. […] For testing the clearance efficacy of each antibiotic at a single lethal dose, the 10x of the MIC for each antibiotic-strain pair were prepared in at least three replicates. (3) Antibiotic exposure. During the dose response assay, frozen cultures of the E. coli strains expressing YFP and mCherry were thawed and mixed at a 1:1 ratio, diluted 1:1000 in 30 mL MHB and incubated for 45 min at 37 °C and 160 rpm. During the single-dose assay, the frozen cultures of experimental strains (E. coli, K. pneumoniae, A. baumannii) were also thawed and diluted 1:1000 in 30 mL MHB and incubated at 37 °C to reach an OD of 0.25 and 160 rpm. Following this incubation phase, these bacterial cultures were then aliquoted into the 96-well deep-well antibiotic plates (15 μL culture; total volume of 250 μL) at an inoculum density of about 10^7 CFU.

A. baumannii = assay: Bacterial survival at 10xMIC for 4 hours; type: cell-based, Acinetobacter baumannii; settings: for Survival rate (log10): Acinetobacter baumannii, survival at 10xMIC for 4 hours, single replicates, (fig 9a source data)
Experimental: as §1, §2, §3, §4

E. coli = type: cell-based, Escherichia coli
Experimental: as §1, §2, §3, §4

P. aeruginosa = type: cell-based, Pseudomonas aeruginosa; settings: Pseudomonas aeruginosa, survival at 10xMIC for 4 hours, single replicates, (fig 9a source data)
Experimental: as §1, §2, §3, §4

[1] = test system: polymyxin B-resistant lines of E. coli (EC-SEN); assay: Cross-resistance of polymyxin B resistant evolved lines, relative MIC; type: cell-based, Escherichia coli
Experimental: 3 independently evolved lines from each investigated species were studied, including E. coli (EC), K. pneumoniae (KP), A. baumannii (AB), and P. aeruginosa (PA). […] The distances between antibiotics were computed using the Euclidean distance method based on the log-transformed MIC values. The clustering was performed using the complete linkage method. […] For detailed information on antibiotic and bacterial strain abbreviations, see Supplementary Data 1. Source data are provided as a Source Data file.
A robotic liquid handling system was used to automatically prepare a 11 to 16-step serial dilution in 384-well microtiter plates (Greiner). A final concentration of 5 × 10^5 bacterial cells per mL were inoculated into each well containing 60 µL MHB medium. Bacterial cultures were incubated at 37 °C with continuous shaking (Infors shaker, 900 rpm with 3 mm throw) for 18 hours (2 replicates from each). Cell growth was monitored by measuring the optical density (OD600 values, using Biotek Synergy microplate reader). MIC was defined as the antibiotic concentration of complete growth inhibition (i.e., OD600 < 0.05). Relative MIC was calculated as follows:1 relativeMIC=MICevolved/MICancestor […]
Each data point represents a distinct
Boxplots show the median, first and third quartiles, with whiskers showing the 5th and 95th percentiles. P values were calculated using Dunn's post-hoc test with Benjamini-Hochberg correction (NS indicates p > 0.05, ** / **** indicates p < 0.01 […]
For detailed information on antibiotic and bacterial strain abbreviations, see Supplementary Table 1. Source data are provided as a Source […]
(1 picture or pasted object on this page, not shown here)

[2] = EC-SEN, polymyxin B-resistant evolved line 4, MIC evolved/MIC ancestor
[3] = EC-SEN, polymyxin B-resistant evolved line 6, MIC evolved/MIC ancestor
[4] = EC-SEN, polymyxin B-resistant evolved line 10, MIC evolved/MIC ancestor
[5] = polymyxin B-resistant evolved line 4 of EC-SEN, MIC relative to ancestor
[6] = polymyxin B-resistant evolved line 6 of EC-SEN, MIC relative to ancestor
[7] = polymyxin B-resistant evolved line 10 of EC-SEN, MIC relative to ancestor
[8] = Escherichia coli, survival at 10xMIC for 4 hours, single replicates, (fig 9a source data)

## CN[C@@H]1[C@@H](O[C@H]2O[C@H](CO)[C@@H](N)[C@H](O)[C@H]2O)OC2C[C@@H](N)[C@@H](O[C@H]3[C@H](O)[C@@H](O)[C@H](N)C[C@@H]3N)OC2[C@@H]1O (stereo partly shown) [Apramycin]
K. pneumoniae; listed as APR
  Survival rate (log10): -1.19 log10 and -1.1 log10 and -1.062 log10 and -0.9595 log10 and -0.945 log10
A. baumannii; listed as APR
  Survival rate (log10): -1.378 log10 and -1.536 log10 and -1.241 log10 and -1.504 log10 and -1.3851 log10

## Nc1nc(-n2cc(C(=O)O)c(=O)c3cc(F)c(N4CC(O)C4)c(Cl)c32)c(F)cc1F [Delafloxacin]
E. coli; Escherichia coli, survival at 10xMIC for 4 hours, single replicates, (fig 9a source data), listed as DEL
  Survival rate (log10): -1.163 log10 and -1.03 log10 and -1.096 log10 and -1.128 log10 and -1.122 log10
K. pneumoniae; listed as DEL
  Survival rate (log10): -0.7389 log10 and -0.7966 log10 and -0.7399 log10 and -1.048 log10 and -0.8397 log10
A. baumannii; listed as DEL
  Survival rate (log10): -1.416 log10 and -1.661 log10 and -1.352 log10 and -1.5252 log10 and -1.635 log10
P. aeruginosa; listed as DEL
  Survival rate (log10): -0.244 log10 and -0.1736 log10 and -0.08683 log10 and -0.3488 log10 and -0.1122 log10

## CN(C)[C@@H]1C(O)=C(C(N)=O)C(=O)[C@@]2(O)C(O)=C3C(=O)c4c(O)c(NC(=O)CN5CCCC5)cc(F)c4C[C@H]3C[C@@H]12 [Eravacycline]
E. coli; Escherichia coli, survival at 10xMIC for 4 hours, single replicates, (fig 9a source data), listed as ERA
  Survival rate (log10): -1.588 log10 and -1.262 log10 and -1.406 log10 and -1.2833 log10 and -1.1562 log10
K. pneumoniae; listed as ERA
  Survival rate (log10): -0.6401 log10 and -0.9022 log10 and -0.9087 log10 and -0.8384 log10 and -0.7454 log10
A. baumannii; listed as ERA
  Survival rate (log10): -1.499 log10 and -1.238 log10 and -1.644 log10 and -1.596 log10 and -1.425 log10
P. aeruginosa; listed as ERA
  Survival rate (log10): -0.509 log10 and -0.5518 log10 and -0.8039 log10 and -0.6612 log10 and -0.7582 log10

## CNC(C)C1CCC(N)C(OC2C(N)CC(N)C(OC3OCC(C)(O)C(NC)C3O)C2O)O1 (stereo not shown) [Gentamicin]
E. coli; Escherichia coli, survival at 10xMIC for 4 hours, single replicates, (fig 9a source data), listed as GEN
  Survival rate (log10): -0.32 log10 and -0.3695 log10 and -0.2419 log10 and -0.4019 log10 and -0.3632 log10
K. pneumoniae; listed as GEN
  Survival rate (log10): -0.9685 log10 and -0.989 log10 and -1.08 log10 and -0.8281 log10 and -1.091 log10
A. baumannii; listed as GEN
  Survival rate (log10): -1.432 log10 and -1.215 log10 and -1.434 log10 and -1.4437 log10 and -1.516 log10
P. aeruginosa; listed as GEN
  Survival rate (log10): -0.02375 log10 and -0.1205 log10 and -0.1516 log10 and -0.09697 log10 and -0.6642 log10

## CC[C@H](C)CCCCC(=O)N[C@@H](CCN)C(=O)N[C@H](C(=O)N[C@@H](CCN)C(=O)N[C@H]1CCNC(=O)[C@H]([C@@H](C)O)NC(=O)[C@H](CCN)NC(=O)[C@H](CCN)NC(=O)[C@H](CC(C)C)NC(=O)[C@@H](Cc2ccccc2)NC(=O)[C@H](CCN)NC1=O)[C@@H](C)O [Polymyxin B] (X2-[Dab]T[Dab][Dab][Dab][dF]L[Dab][Dab]T; lactam 4-C (inferred); N-terminus assumed)
[1]; [2]
  Relative MIC: 64
[1]; [3]
  Relative MIC: 32
[1]; [4]
  Relative MIC: 32
[1]; [5]
  Relative MIC: 64
[1]; [6]
  Relative MIC: 32
[1]; [7]
  Relative MIC: 32
E. coli; Escherichia coli, survival at 10xMIC for 4 hours, single replicates, (fig 9a source data), listed as PMB
  Survival rate (log10): -4.007 log10 and -4.747 log10 and -3.481 log10
K. pneumoniae; listed as PMB
  Survival rate (log10): -3.309 log10 and -3.392 log10 and -3.139 log10 and -2.914 log10 and -3.825 log10
A. baumannii; listed as PMB
  Survival rate (log10): -3.38 log10 and -2.762 log10 and -3.033 log10 and -2.9785 log10 and -2.974 log10
P. aeruginosa; listed as PMB
  Survival rate (log10): -6 log10 and -3.379 log10

## CC(C)c1ccc(Cn2ccc3c4c(N)nc(NC5CC5)nc4ccc32)cc1 [SCH79797]
[1]; [2]
  Relative MIC: 1
[1]; [3]
  Relative MIC: 1
[1]; [4]
  Relative MIC: 1
[1]; [5]
  Relative MIC: 1
[1]; [6]
  Relative MIC: 1
[1]; [7]
  Relative MIC: 1
E. coli; 10xMIC for 4 hours
  bacterial survival after toxic antibiotic exposure: eliminated the entire bacterial population
E. coli; [8]
  Survival rate (log10): -6 log10
K. pneumoniae; 10xMIC for 4 hours
  bacterial survival after toxic antibiotic exposure: eliminated the entire bacterial population
K. pneumoniae
  Survival rate (log10): -6 log10
A. baumannii; 10xMIC for 4 hours
  bacterial survival after toxic antibiotic exposure: eliminated the entire bacterial population
A. baumannii
  Survival rate (log10): -6 log10

## C[C@@H](O)[C@H]1C(=O)N2C(C(=O)O)=C(S[C@H]3CC[S@@+]([O-])C3)S[C@H]12 [Sulopenem]
E. coli; Escherichia coli, survival at 10xMIC for 4 hours, single replicates, (fig 9a source data), listed as SUO
  Survival rate (log10): -1.918 log10 and -1.5648 log10 and -1.786 log10 and -1.733 log10 and -1.844 log10
K. pneumoniae; listed as SUO
  Survival rate (log10): -0.7658 log10 and -1.06 log10 and -0.9043 log10 and -0.6919 log10 and -1.504 log10
A. baumannii; listed as SUO
  Survival rate (log10): -2.317 log10 and -2.432 log10 and -2.658 log10 and -2.635 log10

## Tridecaptin M152-P3
E. coli
  Survival rate (log10): -4.747 log10
E. coli; [8]
  Survival rate (log10): -3.386 log10
K. pneumoniae; listed as TRD
  Survival rate (log10): -2.838 log10 and -3.629 log10 and -3.392 log10 and -4.671 log10
A. baumannii; listed as TRD
  Survival rate (log10): -2.876 log10 and -2.59 log10 and -2.704 log10 and -2.72 log10 and -2.696 log10
